This is an account of results in patent US8710233B2 (Gruenenthal GmbH, priority 2005, dated 2014).

Where two headings read alike, the source gives them in different places.

Holding throughout (format): cell-based
In one experiment the target is T1, vanilloid receptor (VR1) (Homo sapiens, UniProt Q8NER1).
T1 construct: expressed in transfected cells; host or cells: CHO K1 cells (ECACC), stably transfected
Briefly: FLIPR Ca2+ influx assay on CHO K1 cells transfected with the VR1 gene (pharmacological method II).

The target of another experiment is VR1/TRPV1 receptor (Homo sapiens, UniProt Q8NER1). Briefly: IC50 (human) after pH stimulus.
Experiment [1] addresses T2, vanilloid receptor 1 (VR1/TRPV1) of the rat species (Rattus norvegicus, UniProt O35433).
T2 construct: The spinal column is removed from decapitated rats; from tissue; host or cells: primary cells dissociated from rat dorsal root ganglia
Briefly: FLIPR Ca2+ influx assay on rat dorsal root ganglia cells (pharmacological method I). From the text:
I. Functional Investigation of the Vanilloid Receptor 1 (VR1/TRPV1 Receptor)
The agonistic or antagonistic action of the substances to be investigated on the vanilloid receptor 1 (VR1/TRPV1) of the rat species may be determined by the following assay. According to this assay, the influx of Ca^2+ through the receptor channel is quantified with the assistance of a Ca^2+-sensitive dye (type Fluo-4, Molecular Probes Europe BV, Leiden, Netherlands) in a Fluorescent Imaging Plate Reader (FLIPR, Molecular Devices, Sunnyvale, USA).
The spinal column is removed from decapitated rats and is placed directly in cold, i.e. located in an ice bath, HBSS buffer (Hank's buffered saline solution, Gibco Invitrogen GmbH, Karlsruhe, Germany) combined with 1 vol. % (percent by volume) of an AA solution (antibiotic/antimycotic solution, PAA, Pasching, Austria). The spinal column is cut open longitudinally and removed together with fasciae from the spinal canal. The dorsal root ganglia (DRGs) are then removed and in turn stored in cold HBSS buffer combined with 1 vol. % of an AA solution. The DRGs, from which all traces of blood and spinal nerves have been removed, are in each case transferred into 500 μL of cold collagenase type 2 (PAA, Pasching, Austria) and incubated for 35 minutes at 37° C. […] Once incubation is complete, the enzyme solution is carefully removed by pipette and the DRGs, which are left behind, are in each case combined with 500 μL of complete medium.
The DRGs are in each case repeatedly suspended, drawn by means of a syringe through […], no. 12 and no. 16 cannulas and transferred into 50 mL Falcon microtubes and each tube is made up to 15 mL with complete medium. The contents of each Falcon microtube are in each case filtered through a 70 μm Falcon filter insert and centrifuged for 10 minutes at 1200 revolutions and room temperature. The resultant pellet is in each case resuspended in 250 μL of complete medium and the cell count determined.
The number of cells in the suspension is adjusted to 3×10^5 per mL and a 150 μL portion of this suspension is in each case placed in a well of the cell culture plate which has been coated as described above.
The cells are then loaded with 2 μM Fluo-4 and 0.01 vol. % Pluronic F127 (Molecular Probes Europe BV, Leiden, Netherlands) in HBSS buffer (Hank's buffered saline solution, Gibco Invitrogen GmbH, Karlsruhe, Germany) for 30 min at 37° C., washed 3× with HBSS buffer and, after a further 15 minutes' incubation at room temperature, used for Ca^2+ measurement in the FLIPR assay. […] Quantification proceeds by measuring the highest fluorescence intensity (FC, fluorescence counts) over time.
The FLIPR protocol comprises 2 additions of substance. The compounds to be tested (10 μM) are firstly pipetted onto the cells and Ca^2+ influx is compared with the control (capsaicin 10 μM). This provides the percentage activation relative to the Ca^2+ signal after addition of 10 μM of capsaicin (CP). After 5 minutes' incubation, 100 nM of capsaicin are added and the influx of Ca^2+ is again determined.
Desensitising agonists and antagonists result in suppression of Ca^2+ influx. The percentage inhibition in comparison with the maximum achievable inhibition with 10 μM capsaicin is calculated.
Triplicate determinations (n═3) are performed and these are repeated in at least 3 independent experiments […].

The mark [2] stands for this setting: Table 2, displacement of capsaicin (100 nM), Cheng-Prusoff, read-out: Ki (human).
Where [3] appears, read: Table 2, displacement of capsaicin (100 nM), Cheng-Prusoff, read-out: Ki (rat).
Where [4] appears, read: table 4, capsaicin, read-out: Ki (human) Cap.
[5] abbreviates: table 4, capsaicin, read-out: Ki (rat) Cap.
Setting [6] is: Ki (rat), Table 2, displacement of capsaicin (100 nM), Cheng-Prusoff.

T2 sequence (O35433 whole entry): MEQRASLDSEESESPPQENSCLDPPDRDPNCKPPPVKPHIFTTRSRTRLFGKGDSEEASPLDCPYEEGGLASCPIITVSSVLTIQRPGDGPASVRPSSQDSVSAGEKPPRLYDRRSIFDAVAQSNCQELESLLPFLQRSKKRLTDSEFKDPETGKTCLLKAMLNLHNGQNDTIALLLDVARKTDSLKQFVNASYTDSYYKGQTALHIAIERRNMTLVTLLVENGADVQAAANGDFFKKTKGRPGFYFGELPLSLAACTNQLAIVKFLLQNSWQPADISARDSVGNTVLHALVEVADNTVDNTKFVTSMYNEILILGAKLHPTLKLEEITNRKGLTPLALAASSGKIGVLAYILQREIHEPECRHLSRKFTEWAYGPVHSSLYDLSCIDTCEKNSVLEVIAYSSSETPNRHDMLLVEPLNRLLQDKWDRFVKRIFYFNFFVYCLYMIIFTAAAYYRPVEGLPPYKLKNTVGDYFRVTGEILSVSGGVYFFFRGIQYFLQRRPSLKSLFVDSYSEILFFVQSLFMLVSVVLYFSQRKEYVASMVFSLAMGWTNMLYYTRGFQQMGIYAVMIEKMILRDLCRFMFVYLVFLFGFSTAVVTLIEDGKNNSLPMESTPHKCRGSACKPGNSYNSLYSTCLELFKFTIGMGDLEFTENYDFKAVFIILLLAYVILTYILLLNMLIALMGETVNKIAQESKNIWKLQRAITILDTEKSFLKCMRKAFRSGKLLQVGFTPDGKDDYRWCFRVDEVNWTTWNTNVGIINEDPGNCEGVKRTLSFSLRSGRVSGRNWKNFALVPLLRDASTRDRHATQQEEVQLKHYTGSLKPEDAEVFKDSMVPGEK
T1 sequence (Q8NER1 whole entry): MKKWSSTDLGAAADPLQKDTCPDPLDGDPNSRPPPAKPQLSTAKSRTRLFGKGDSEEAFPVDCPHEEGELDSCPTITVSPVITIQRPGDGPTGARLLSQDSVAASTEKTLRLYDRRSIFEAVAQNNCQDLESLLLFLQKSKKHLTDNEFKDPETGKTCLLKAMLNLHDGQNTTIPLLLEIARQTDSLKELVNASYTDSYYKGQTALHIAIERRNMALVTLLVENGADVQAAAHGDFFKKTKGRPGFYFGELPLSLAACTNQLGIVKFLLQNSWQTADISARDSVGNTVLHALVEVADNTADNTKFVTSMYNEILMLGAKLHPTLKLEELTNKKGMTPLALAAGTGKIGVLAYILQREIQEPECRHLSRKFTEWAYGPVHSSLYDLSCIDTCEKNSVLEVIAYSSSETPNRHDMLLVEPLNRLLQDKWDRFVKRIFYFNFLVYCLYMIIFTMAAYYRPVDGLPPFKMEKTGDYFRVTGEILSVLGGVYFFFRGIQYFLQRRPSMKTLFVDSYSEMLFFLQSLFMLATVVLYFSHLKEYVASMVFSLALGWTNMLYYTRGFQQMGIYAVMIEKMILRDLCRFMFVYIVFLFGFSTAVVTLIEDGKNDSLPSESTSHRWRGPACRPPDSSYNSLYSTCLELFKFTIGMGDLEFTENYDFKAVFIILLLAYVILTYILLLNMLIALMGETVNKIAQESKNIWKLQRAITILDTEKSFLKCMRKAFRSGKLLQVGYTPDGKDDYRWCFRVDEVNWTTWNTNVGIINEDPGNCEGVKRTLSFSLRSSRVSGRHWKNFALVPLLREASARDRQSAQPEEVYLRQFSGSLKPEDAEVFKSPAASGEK
Sequence of VR1/TRPV1 receptor (Q8NER1 whole entry): as above

Broadly, the Ki is a dissociation constant, usually derived from enzyme kinetics or from competition with a known ligand. As usually defined, the IC50 is the midpoint of a concentration-inhibition curve. Low values mean higher potency, high ones lower potency. Consider `CC(C(=O)NCc1ccc(C(F)(F)F)nc1Br)c1ccc(NS(C)(=O)=O)c(F)c1` (stereo not shown) [Example 6, N-((2-bromo-6-(trifluoromethyl)pyridin-3-yl)methyl)-2-(3-fluoro-4-(methylsulfonamido)phenyl)propanamide], for which the results for the Ki (on vanilloid receptor (VR1) (setting [2]); in experiment [1] (setting [3])) were 169 nM and 95 nM, respectively. This compound gave an IC50 against VR1/TRPV1 receptor (Table 2) of 2610 nM.

Consider `C[C@@H](C(=O)NCc1ccc(C(F)(F)F)nc1N1CCCCC1)c1ccc(NS(C)(=O)=O)c(F)c1` [Example 11, (R)-2-(3-fluoro-4-(methylsulfonamido)phenyl)-N-((2-(piperidin-1-yl)-6-(trifluoromethyl)pyridin-3-yl)methyl)propanamide], for which the inhibition constant (Ki) was determined as 0.3 nM at vanilloid receptor (VR1) (setting [2]) and 1.1 nM in experiment [1] (setting [3]). On VR1/TRPV1 receptor (Table 2), this compound returned an IC50 of 46.7 nM.

For the compound `CC(C(=O)NCc1ccc(C(F)(F)F)nc1N1CCOCC1)c1ccc(NS(C)(=O)=O)c(F)c1` (stereo not shown) [Example 12, 2-(3-fluoro-4-(methylsulfonamido)phenyl)-N-((2-morpholino-6-(trifluoromethyl)pyridin-3-yl)methyl)propanamide], the figures for the Ki (on vanilloid receptor (VR1) (setting [2]); in experiment [1] (setting [3])) were 1.3 nM and 4.3 nM, respectively. In addition, the 50% inhibitory concentration (IC50) on VR1/TRPV1 receptor (Table 2) stood at 169 nM.

As to `CC(C(=O)NCc1ccc(C(F)(F)F)nc1N1CCCC1)c1ccc(NS(C)(=O)=O)c(F)c1` (stereo not shown) [Example 13, 2-(3-fluoro-4-(methylsulfonamido)phenyl)-N-((2-(pyrrolidin-1-yl)-6-(trifluoromethyl)pyridin-3-yl)methyl)propanamide], the figures for the Ki (on vanilloid receptor (VR1) (setting [2]); in experiment [1] (setting [3])) were 0.6 nM and 3.8 nM, respectively. The same compound registered an IC50 against VR1/TRPV1 receptor (Table 2) of 211 nM.

For the compound `CCN(CC)c1nc(C(F)(F)F)ccc1CNC(=O)C(C)c1ccc(NS(C)(=O)=O)c(F)c1` (stereo not shown) [Example 15, N-((2-(diethylamino)-6-(trifluoromethyl)pyridin-3-yl)methyl)-2-(3-fluoro-4-(methylsulfonamido)phenyl)propanamide], the results for the Ki (on vanilloid receptor (VR1) (setting [4]); in experiment [1] (setting [5])) were 3.5 nM and 12 nM, respectively. The compound also gave a 50% inhibitory concentration (IC50) at VR1/TRPV1 receptor (table 4) of 148 nM.

As to `COc1nc(C(F)(F)F)ccc1CNC(=O)C(C)c1ccc(NS(C)(=O)=O)c(F)c1` (stereo not shown) [Example 18, 2-(3-fluoro-4-(methylsulfonamido)phenyl)-N-((2-methoxy-6-(trifluoromethyl)pyridin-3-yl)methyl)propanamide], the values for the Ki (on vanilloid receptor (VR1) (setting [2]); in experiment [1] (setting [6])) were 68.9 nM and 47 nM, respectively. At VR1/TRPV1 receptor (Table 2), this compound came in with a half-maximal inhibitory concentration (IC50) of 2710 nM.

Turning to `CCCCOc1nc(C(F)(F)F)ccc1CNC(=O)C(C)c1ccc(NS(C)(=O)=O)c(F)c1` (stereo not shown) [Example 19, N-((2-butoxy-6-(trifluoromethyl)pyridin-3-yl)methyl)-2-(3-fluoro-4-(methylsulfonamido)phenyl)propanamide], the Ki in experiment [1] (setting [3]) is 1 nM.

With `CC(C)Oc1nc(C(F)(F)F)ccc1CNC(=O)C(C)c1ccc(NS(C)(=O)=O)c(F)c1` (stereo not shown) [Example 20, 2-(3-fluoro-4-(methylsulfonamido)phenyl)-N-((2-isopropoxy-6-(trifluoromethyl)pyridin-3-yl)methyl)propanamide], the Ki on vanilloid receptor (VR1) (setting [2]) turned out to be 2.1 nM; in experiment [1] (setting [6]), 5.4 nM. At VR1/TRPV1 receptor (Table 2), this compound registered a half-maximal inhibitory concentration (IC50) of 93 nM.

With `CC(C(=O)NCc1ccc(C(F)(F)F)nc1OC1CCCC1)c1ccc(NS(C)(=O)=O)c(F)c1` (stereo not shown) [Example 21, N-((2-cyclopentyloxy-6-(trifluoromethyl)pyridin-3-yl)methyl)-2-(3-fluoro-4-(methylsulfonamido)phenyl)propanamide], the results for the Ki (at vanilloid receptor (VR1) (setting [2]); in experiment [1] (setting [3])) were 0.9 nM and 1.3 nM, respectively. This compound also displayed a half-maximal inhibitory concentration (IC50) on VR1/TRPV1 receptor (Table 2) of 29 nM.

`CC(C(=O)NCc1ccc(C(F)(F)F)nc1-c1ccccc1)c1ccc(NS(C)(=O)=O)c(F)c1` (stereo not shown) [Example 22, 2-(3-fluoro-4-(methylsulfonamido)phenyl)-N-((2-phenyl-6-(trifluoromethyl)pyridin-3-yl)methyl)propanamide]: the figures for the Ki (on vanilloid receptor (VR1) (setting [2]); in experiment [1] (setting [3])) were 6.4 nM and 4.9 nM, respectively. For the same compound, half-maximal inhibition against VR1/TRPV1 receptor (Table 2) (IC50) required 62 nM.

For `C[C@H](C(=O)NCc1ccc(C(F)(F)F)cc1N1CCCCC1)c1ccc(NS(C)(=O)=O)c(F)c1` [Example 31, (S)-2-(3-fluoro-4-(methylsulfonamido)phenyl)-N-(2-(piperidin-1-yl)-4-(trifluoromethyl)benzyl)propanamide], the inhibition constant (Ki) was 0.6 nM at vanilloid receptor (VR1) (setting [2]) and 0.5 nM in experiment [1] (setting [3]). The same compound registered a half-maximal inhibitory concentration (IC50) against VR1/TRPV1 receptor (Table 2) of 50 nM.

With `CC(C(=O)NCc1ccc(C(F)(F)F)cc1N1CCOCC1)c1ccc(NS(C)(=O)=O)c(F)c1` (stereo not shown) [Example 33, 2-(3-fluoro-4-(methylsulfonamido)phenyl)-N-(2-morpholino-4-(trifluoromethyl)benzyl)propanamide], the inhibitory constant (Ki) came to 7.2 nM on vanilloid receptor (VR1) (setting [2]) and 4.8 nM in experiment [1] (setting [3]). This compound had an IC50 on VR1/TRPV1 receptor (Table 2) of 1380 nM.

`CC(C(=O)NCc1ccc(C(F)(F)F)nc1N1CCCCC1)c1ccc(NS(C)(=O)=O)c(Cl)c1` (stereo not shown) [Example 64, 2-(3-chloro-4-(methylsulfonamido)phenyl)-N-((2-(piperidin-1-yl)-6-(trifluoromethyl)pyridin-3-yl)methyl)propanamide]: the Ki was 2.3 nM at vanilloid receptor (VR1) (setting [2]) and 6.3 nM in experiment [1] (setting [3]).

For the compound `CC(C(=O)NCc1ccc(C(F)(F)F)nc1N1CCCC1)c1ccc(NS(C)(=O)=O)c(Cl)c1` (stereo not shown) [Example 65, 2-(3-chloro-4-(methylsulfonamido)phenyl)-N-((2-(pyrrolidin-1-yl)-6-(trifluoromethyl)pyridin-3-yl)methyl)propanamide], the Ki on vanilloid receptor (VR1) (setting [2]) is 4.2 nM; in experiment [1] (setting [3]), 36.5 nM.

Regarding `CC(C(=O)NCc1ccc(C(F)(F)F)cc1N1CCCCC1)c1ccc(NS(C)(=O)=O)c(Cl)c1` (stereo not shown) [Example 66, 2-(3-chloro-4-(methylsulfonamido)phenyl)-N-(2-(piperidin-1-yl)-4-(trifluoromethyl)benzyl)propanamide], the values for the Ki (at vanilloid receptor (VR1) (setting [2]); in experiment [1] (setting [3])) were 2.9 nM and 3.7 nM, respectively.

Take `CC(C(=O)NCc1ccc(C(F)(F)F)nc1N1CCCCC1)c1ccc(NS(C)(=O)=O)c(Br)c1` (stereo not shown) [Example 67, 2-(3-bromo-4-(methylsulfonamido)phenyl)-N-((2-(piperidin-1-yl)-6-(trifluoromethyl)pyridin-3-yl)methyl)propanamide]: the values for the inhibitory constant (Ki) (on vanilloid receptor (VR1) (setting [2]); in experiment [1] (setting [3])) were 3.2 nM and 5.1 nM, respectively.

Consider `CC(C(=O)NCc1ccc(C(F)(F)F)cc1N1CCCC1)c1ccc(NS(C)(=O)=O)c(Br)c1` (stereo not shown) [Example 69, 2-(3-bromo-4-(methylsulfonamido)phenyl)-N-(2-(pyrrolidin-1-yl)-4-(trifluoromethyl)benzyl)propanamide], for which the inhibition constant Ki at vanilloid receptor (VR1) (setting [2]) worked out at 1.7 nM; in experiment [1] (setting [3]) it was 2.4 nM.

`CC1CCN(c2nc(-c3ccc(F)cc3)ccc2CNC(=O)C(C)c2ccc(NS(C)(=O)=O)c(F)c2)CC1` (stereo not shown) [Example 184, 2-(3-fluoro-4-methylsulfonamido-phenyl)-N-[6′-(4-fluoro-phenyl)-4-methyl-3,4,5,6-tetrahydro-2H-[1,2′]bipyridinyl-3′-ylmethyl]-propionamide]: the inhibitory constant (Ki) in experiment [1] (setting [5]) came out at 77 nM.

Compound `CC1CC(C)CN(c2nc(C(F)(F)Cl)ccc2CNC(=O)C(C)c2ccc(NS(C)(=O)=O)c(F)c2)C1` (stereo not shown) [Example 187, N-[6′-(chloro-difluoro-methyl)-3,5-dimethyl-3,4,5,6-tetrahydro-2H-[1,2′]bipyridinyl-3′-ylmethyl]-2-(3-fluoro-4-methylsulfonamido-phenyl)-propionamide] came in with a half-inhibitory concentration (IC50) against VR1/TRPV1 receptor (table 4) of 39.6 nM. For the same compound, in experiment [1] (setting [5]), the inhibition constant Ki is 0.5 nM.

With `CCOCCOc1nc(C(C)(C)C)ccc1CNC(=O)C(C)c1ccc(NS(C)(=O)=O)c(F)c1` (stereo not shown) [Example 378, N-((6-tert-butyl-2-(2-ethoxyethoxy)pyridin-3-yl)methyl)-2-(3-fluoro-4-(methylsulfonamido)phenyl)propanamide], the inhibitory constant (Ki) at vanilloid receptor (VR1) (setting [4]) was determined as 23.9 nM. This compound displayed an IC50 at VR1/TRPV1 receptor (table 4) of 325 nM.
